According to US20190375778A1, “ADENOSINE DERIVATIVES FOR USE IN THE TREATMENT OF CANCER” (NuCana plc, priority 2016, published 2019):
Where two headings read alike, the source gives them in different places.

Experiments:
Format in all cases: cell-based
MCF7 = experiment: CellTiterGlo viability assay, MCF7; conditions: for IC50: read-out: IC50 MCF7
Description: (§1) In vitro viability assay were performed to assess the effects of compounds on cell viability in selected cell lines over ˜72 hrs using the CellTiterGlo (CTG, Promega-G7573) assay. The tests were performed in duplicates with treatment of compounds at 9 points, 3.16 folds titration in 96 well plates over ˜72 hrs. The compound starting concentrations were 198 μM. Cell viability assay using CellTiterGlo in 96-well plate were performed. Compound treatment 72 hrs, standard growth conditions, duplicates. Compounds were dissolved to 40 mM with thawed […]. Compounds were serially diluted at 3.16 fold in thawed DMSO, and warmed to 37° C. before being dissolved in media (2 μl+200 μl). After compounds were dissolved in media, media containing compounds were warmed to 37° C. in incubator and then compounds in media were added to cell plates (50 μl+50 μl) in duplicates. The compounds' final concentrations were from […] to 19.9 nM. All compound solubilities were checked and recorded again, then the plates were transferred to CO2 tissue culture incubator immediately and incubated for 3 days. DMSO final concentration is 0.5%.

RL = experiment: CellTiterGlo viability assay, RL; conditions: for IC50: read-out: IC50 RL
Method in brief: (§2)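 Viability is read by CellTiterGlo after three days of treatment. Each compound is tested at nine concentrations spaced 3.16-fold, spanning 198 μM to 19.9 nM final, in duplicate wells with DMSO held at 0.5%.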

[1] = tested on: human cervix carcinoma HeLa cells; experiment: Cell proliferation (Coulter count) assay, HeLa; conditions: 120 h, cell count on day 5, read-out: absolute IC50, HeLa
Method in brief: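 Cells grown in DMEM with 10% FBS. HeLa seeded at 10 000 cells/well, compound added after 24 h, counted day 5; L1210 and CEM seeded at 60 000 cells/well with compound, counted after 48 h and 72 h respectively. IC50 is concentration halving proliferation by Coulter count.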

[2] = tested on: KG1a leukaemic stem cell compartment (Lin−/CD34+/CD38−/CD123+); experiment: Leukaemic stem cell compartment in KG1a; conditions: for KG-1a (CD34+/CD38−/CD123+) % compartment: LSC as percentage of viable cells left, 72 hrs; for targeting of leukaemic/cancer stem cells in words: KG1a, compared to 8-chloroadenosine (FIG. 2, FIG. 8); for Change relative to control (%): % LSC compartment versus the series' control
Description: A further comparative analysis of the toxicity of compounds in the KG1a cell line over an extended dose range was carried out, and the relative effect assessed of the compounds on the leukaemic stem cell compartment within the KG1a cell line, across the entire dose range. Thus, experimental tests were performed on certain compounds of the present invention to assess their ability to target cancer stem cells in a leukaemic cell line. The acute myeloid leukaemia (AML) cell line, KG1a, was employed to assess the relative effect of compounds on the stem cell compartment. The KG1a cell line was selected because it manifests a minor stem cell-like compartment with a distinct immunophenotype (Lin^−/CD34^+/CD38^−/CD123^+).
Cells of the KG1a cell line were maintained in RPMI medium (Invitrogen, Paisley, UK) supplemented with 100 units/ml penicillin, 100 μg/ml streptomycin and 20% foetal calf serum. Cells were subsequently aliquoted (10^5 cells/100 μl) into 96-well plates and were incubated at 37° C. in a humidified 5% carbon dioxide atmosphere for 72 hrs in the presence of nucleoside analogues and their respective nucleotide analogues (known as ProTides) at concentrations that were experimentally determined for each series of compounds. In addition, control cultures were carried out to which no drug was added. Cells were subsequently harvested by centrifugation and were analyzed by flow cytometry using the Annexin V assay.
KG1a cells were cultured for 72 hrs in the presence of a wide range of concentrations of each compound assayed. Cells were then harvested and labelled with a cocktail of anti-lineage antibodies (PE-cy7), anti-CD34 (FITC), anti-CD38 (PE) and anti-CD123 (PERCP cy5). The sub-population expressing a leukaemic stem cell (LSC) phenotype were subsequently identified and were expressed as a percentage of all viable cells left in the culture. The percentages of stem cells remaining were then plotted on a dose-response graph and the effects of the compounds were compared with 8-chloroadenosine.
The data obtained in these experiments were evaluated using one way ANOVA. All data was confirmed as Gaussian or a Gaussian approximation using the omnibus K2 test. LD50 values were calculated from the non-linear regression and line of best-fit analysis of the sigmoidal dose-response curves. All statistical analyses were performed using Graphpad Prism 6.0 software (Graphpad Software Inc., San Diego, Calif.).

THP-1 = experiment: CellTiterGlo viability assay, THP-1; conditions: Homo sapiens, read-out: IC50 THP-1
Description: as §1

NCI-H929 = experiment: CellTiterGlo viability assay, NCI-H929; conditions: Homo sapiens, read-out: IC50 NCI-H929
Method in brief: as §2

CCRFCEM = experiment: CellTiterGlo viability assay, CCRFCEM; conditions: for IC50: read-out: IC50 CCRFCEM
Method in brief: as §2

BxPC-3 = experiment: CellTiterGlo viability assay, BxPC-3; conditions: Homo sapiens, read-out: IC50 BxPC-3
Description: as §1

SW620 = experiment: CellTiterGlo viability assay, SW620; conditions: Homo sapiens, read-out: IC50 SW620
Description: as §1

MV4-11 = experiment: CellTiterGlo viability assay, MV4-11; conditions: Homo sapiens, read-out: IC50 MV4-11
Method in brief: as §2

MOLT-4 = experiment: CellTiterGlo viability assay, MOLT-4; conditions: for IC50: read-out: IC50 MOLT-4
Description: as §1

Jurkat = experiment: CellTiterGlo viability assay, Jurkat; conditions: Homo sapiens, read-out: IC50 Jurkat
Description: as §1

[3] = Homo sapiens, MCF7, CellTiterGlo, 72 hrs
[4] = Homo sapiens, RL, CellTiterGlo, 72 hrs
[5] = Homo sapiens, CCRF-CEM, CellTiterGlo, 72 hrs
[6] = Homo sapiens, MOLT-4, CellTiterGlo, 72 hrs

Row | Compound | IC50 (MCF7; Homo sapiens, MCF7, 72 h) [µM] | IC50 (RL; Homo sapiens, RL, 72 h) [µM] | IC50 [1] [µM] | KG-1a (CD34+/CD38−/CD123+) % compartment [2] [%] | IC50 (THP-1; THP-1, 72 h) [µM] | IC50 (NCI-H929; NCI-H929, 72 h) [µM] | IC50 (CCRFCEM; Homo sapiens, CCRF-CEM, 72 h) [µM] | IC50 (BxPC-3; BXPC-3, 72 h) [µM] | IC50 (SW620; SW-620, 72 h) [µM] | IC50 (MV4-11; MV4-11, 72 h) [nM] | IC50 (MOLT-4; Homo sapiens, MOLT-4, 72 h) [µM] | IC50 (Jurkat; 72 h) [µM] | further results
1 | C[C@H](NP(=O)(OC[C@H]1O[C@@H](n2c(Cl)nc3c(N)ncnc32)[C@H](O)[C@@H]1O)Oc1ccccc1)C(=O)OCc1ccccc1 (mixture of isomers) [C, (2S)-Benzyl 2-(((((2R,3S,4R,5R)-5-(6-amino-8-chloro-9H-purin-9-yl)-3,4-dihydroxy-tetrahydrofuran-2-yl)methoxy)(phenoxy)phosphoryl)amino)propanoate] | 15 to 100 | 15 to 100 | 5 to 15 | 3.3 | 15 to 100 | 5 to 15 | 5 to 15 | 15 to 100 | 15 to 100 | 100 to 5000 | 0.1 to 5 | 15 to 100 | 
2 | Nc1ncnc2c1nc(Cl)n2[C@@H]1O[C@H](COP(=O)(NCC(=O)OC2CCCCC2)Oc2ccccc2)[C@@H](O)[C@H]1O (mixture of isomers) [Compound A, Cyclohexyl 2-(((((2R,3S,4R,5R)-5-(6-amino-8-chloro-9H-purin-9-yl)-3,4-dihydroxy-tetrahydrofuran-2-yl)methoxy)(phenoxy)phosphoryl)amino)acetate] | 15 to 100 | 5 to 15 | 15 to 100 |  | 15 to 100 | 15 to 100 | 5 to 15 | 15 to 100 | 15 to 100 | 100 to 5000 | 15 to 100 | 15 to 100 | 
3 | Nc1ncnc2c1nc(Cl)n2[C@@H]1O[C@H](COP(=O)(NCC(=O)OCc2ccccc2)Oc2ccccc2)[C@@H](O)[C@H]1O (mixture of isomers) [Compound B, Benzyl 2-(((((2R,3S,4R,5R)-5-(6-amino-8-chloro-9H-purin-9-yl)-3,4-dihydroxytetra-hydrofuran-2-yl)methoxy)(phenoxy)phosphoryl)amino)acetate] | 0.1 to 5 | 5 to 15 | 0.1 to 5 | 2.7 | 0.1 to 5 | 5 to 15 | 0.1 to 5 | 5 to 15 | 0.1 to 5 | 100 to 5000 | 0.1 to 5 | 0.1 to 5 | targeting of leukaemic/cancer stem cells in words [2]: particularly effective preferential targeting of LSCs
4 | Nc1ncnc2c1nc(Cl)n2[C@@H]1O[C@H](CO)[C@@H](O)[C@H]1O [8-chloroadenosine, 8-Chloroadenosine, reference compound] |  |  | 0.1 to 5 | 3.7 |  |  |  |  |  |  |  |  | Top in. % MCF7 (MCF7): 79.6%; IC50 (MCF7; [3]): 0.1 to 5 µM; EC50 (MCF7; Homo sapiens, MCF7, read-out: Ab EC50 (μM) MCF7): 1.33 µM; Top in. % RL (RL): 87.3%; IC50 (RL; [4]): 5 to 15 µM; EC50 (RL; Homo sapiens, RL, read-out: Ab EC50 (μM) RL): 4.39 µM; Change relative to control (%) [2]: +0.4%; IC50 (THP-1; THP-1, CellTiterGlo, 72 hrs): 0.1 to 5 µM; IC50 (NCI-H929; NCI-H929, CellTiterGlo, 72 hrs): 0.1 to 5 µM; Top in. % CCRF-CEM (CCRFCEM): 82.3%; IC50 (CCRFCEM; [5]): 0.1 to 5 µM; EC50 (CCRFCEM; Homo sapiens, CCRF-CEM, read-out: Ab EC50 (μM) CCRF-CEM): 2.27 µM; IC50 (BxPC-3; BXPC-3, CellTiterGlo, 72 hrs): 5 to 15 µM; IC50 (SW620; SW-620, CellTiterGlo, 72 hrs): 0.1 to 5 µM; IC50 (MV4-11; MV4-11, CellTiterGlo, 72 hrs): 100 to 5000 nM; Top in. % MOLT-4 (MOLT-4): 76.0%; IC50 (MOLT-4; [6]): 0.1 to 5 µM; EC50 (MOLT-4; Homo sapiens, MOLT-4, read-out: Ab EC50 (μM) MOLT-4): 3.27 µM; IC50 (Jurkat; CellTiterGlo, 72 hrs): 0.1 to 5 µM
5 | Nc1ncnc2c1nc(Cl)n2[C@@H]1O[C@H](COP(=O)(NCC(=O)OCc2ccccc2)NCC(=O)OCc2ccccc2)C(O)C1O (stereo partly drawn) [Compound AC, 8-Chloroadenosine 5′-O-bis(benzyloxy-glycin-N-yl) phosphate] |  |  | 0.1 to 5 |  |  |  |  |  |  |  |  |  | IC50 (MCF7; [3]): 0.1 to 5 µM; IC50 (RL; [4]): 0.1 to 5 µM; targeting of leukaemic/cancer stem cells in words [2]: no evidence of a capacity to target cancer stem cells; IC50 (THP-1; THP-1, CellTiterGlo, 72 hrs): 0.1 to 5 µM; IC50 (NCI-H929; NCI-H929, CellTiterGlo, 72 hrs): 0.1 to 5 µM; IC50 (CCRFCEM; [5]): 0.1 to 5 µM; IC50 (BxPC-3; BXPC-3, CellTiterGlo, 72 hrs): 5 to 15 µM; IC50 (SW620; SW-620, CellTiterGlo, 72 hrs): 0.1 to 5 µM; IC50 (MV4-11; MV4-11, CellTiterGlo, 72 hrs): 100 to 5000 nM; IC50 (MOLT-4; [6]): 0.1 to 5 µM; IC50 (Jurkat; CellTiterGlo, 72 hrs): 0.1 to 5 µM
6 | C[C@H](NP(=O)(OC[C@H]1O[C@@H](n2c(Cl)nc3c(N)ncnc32)C(O)C1O)Oc1cccc2ccccc12)C(=O)OCc1ccccc1 (stereo partly drawn) [Compound D, (2S)-Benzyl 2-(((((2R,3S,4R,5R)-5-(6-amino-8-chloro-9H-purin-9-yl)-3,4-dihydroxy-tetrahydrofuran-2-yl)methoxynaphthalene-1-yloxy)phosphoryl)amino)propanoate] | 0.1 to 5 | 5 to 15 | 0.1 to 5 | 2.5 | 0.1 to 5 | 0.1 to 5 | 0.1 to 5 | 5 to 15 | 0.1 to 5 | 100 to 5000 | 0.1 to 5 | 0.1 to 5 | Change relative to control (%) [2]: −0.8%
7 | CCCCCOC(=O)[C@H](C)NP(=O)(OC[C@H]1O[C@@H](n2c(Cl)nc3c(N)ncnc32)C(O)C1O)Oc1cccc2ccccc12 (stereo partly drawn) [Compound E, (2S)-Pentyl 2-(((((2R,3S,4R,5R)-5-(6-amino-8-chloro-9H-purin-9-yl)-3,4-dihydroxy-tetrahydrofuran-2-yl)methoxnaphthalene-1-yloxy)phosphoryl)amino)propanoate] | 0.1 to 5 | 5 to 15 | 0.1 to 5 | 3.5 | 0.1 to 5 | 0.1 to 5 | 0.1 to 5 | 5 to 15 | 0.1 to 5 | 100 to 5000 | 0.1 to 5 | 0.1 to 5 | 
8 | CC(C)C[C@H](NP(=O)(OC[C@H]1O[C@@H](n2c(Cl)nc3c(N)ncnc32)C(O)C1O)Oc1ccccc1)C(=O)OCc1ccccc1 (stereo partly drawn) [V, 5′-([(Benzyloxy-L-leucin-N-yl)-phenyl]-phosphatyl) 8-chloroadenosine] | 0.1 to 5 | 15 to 100 | 0.1 to 5 |  | 0.1 to 5 | 0.1 to 5 | 5 to 15 | 5 to 15 | 0.1 to 5 | 100 to 5000 | 0.1 to 5 | 5 to 15 | 
